Measurements from patent US20250236616A1, “IMMUNOMODULATING AZALIDES” (Zoetis Services LLC, priority 2021, published 2025).
Values after ≈ are worked out from the molar mass of the structure shown.

What was measured:
E. coli = assay: MIC, E. coli; type: cell-based; details: Escherichia coli
Text: (§1) Primary screening of the compounds of the invention included the evaluation of antibacterial activity of analogs through determination of microbial inhibition concentration (MIC) as per CLSI guidelines. The screening panel included the relevant BRD pathogens: 1) M. haemolytica (e.g., 12726, 46571 and 49023, all AHDRCC; and 33396 (ATCC)); and 2) P. multocida (e.g., 34135 and 46572 (both AHDRCC) and 43137 (ATCC)). In some instances, H. somni (A700025K) pathogens were also included in the screening panel. The AHDRCC strains originated from the Zoetis BRD/SRD surveillance program and refer to the Animal Health Development and Research Culture Collection. In addition, the screen assessed S. aureus (29213 ATCC) as a representative Gram-positive isolate, E.faecalis (19433 ATCC) as a commensal gram-positive gastrointestinal bacterium and E. coli (100, 3110 and 25922 (ATCC)) for the evaluation of efflux potential. The screening panel BRD pathogens were assessed in determining antibacterial activity of the Formula (1) compounds.
(§2) All relevant BRD pathogens were initially screened at a top concentration of 64 μg/mL of a Formula (1) compound in an eleven-point dilution series. […] If an Example was purified further, the MICs moved […] essentially two dilutions across all strains tested in the screening panel.
(§3) In-Vitro MIC Model Compounds were analyzed for antibacterial activity against a panel of animal health specific gram-positive and gram-negative clinical strains by diluting compounds in DMSO to an appropriate stock concentration to determine the Minimal Inhibitory Concentration (MIC) via a semi-automated broth micro-dilution method (CLSI reference method) with QC strains and anti-microbial agent(s). Specifically, bacteria were grown overnight on TSA w/5% sheep blood agar plates and diluted in saline buffer to a McFarland Standard 0.5, then further diluted in cation-ion adjusted Mueller Hinton Broth to a final concentration of approximately 5×10^5 CFU/mL. 100 μL of inoculated media was added to 96-well plate(s) with 3 μL of serially diluted compound in each row. Depending on strain (see CLSI reference method), bacteria were incubated 18-22 hours at 35-37° C. in ambient air, with 5% CO2 or anaerobically (up to 48 hours).

M. haemolytica = assay: MIC, M. haemolytica strains; type: cell-based; details: Mannheimia haemolytica
Text: as §1, §2, §3

P. multocida 46572 = assay: In vivo mouse lung infection challenge model (murine efficacy), survival; set-up: species or system CD-1 female mice; details: 20 mg/kg subcutaneous; for % Survival: P. multocida 46572 intranasal challenge, harmonized relative to vehicle (−) and M9 (+) controls
Method: The challenge organism was P. multocida 46572. Target challenge concentration was 5×10^2 CFU/mouse. Isolated colonies from overnight growth (37° C. with 5% CO2) on trypticase soy agar (TSA II) blood plates were transferred to room temperature Brain Heart Infusion Broth (BHIB). The broth culture was incubated 3.5-4 hours to approximately mid-log phase of growth, as measured by forward light scatter at 600 nm (OD600, 0.200). The culture was centrifuged to collect the bacterial pellet. The pellet was re-suspended in BHIB and adjusted to provide an approximate concentration of 2.7 log 10 colony forming units (CFU) in 0.04 mL at the highest concentration. The challenge inoculum concentration was confirmed by serial dilutions of the inoculum for CFU enumeration. On Day −5, CD −1 female mice were received. Mice were given standard rodent diet and water ad libitum. On Day 0, bacterial inoculum (0.04 mL) was administered to each mouse (n=36) intranasally. Compounds of the invention were dosed at 20 mg/kg (0.1 mL) in a buffered (˜pH 5.4) propylene glycol, monothioglycerol and water solution by subcutaneous injection. Animals were observed from Days 1-10. The study was terminated on Day 10. In addition, some treatment groups were sampled at 6, 24, and 48 hours post bacterial challenge for RNA sequence analysis of lung tissue.
The murine efficacy model (P.multocida challenge) was optimized, and the treatment group size was powered to be able to observe statistically significant improvement of survival to expected ranges for immunomodulatory compounds. The experimental design was a randomized complete block design. Mice were individually identified and treatment groups comingled within a cage, with every treatment group equally represented across cages. Mortality was the primary variable. Mortality data was analyzed using a generalized mixed model with fixed effect of treatment and random effect of block. Survival time was also analyzed using the SAS PHREG (survival analysis) procedure to examine whether there were significant differences between treatment groups and the control group. Numerous compounds of the invention and M9 (positive control) were tested in this model at a dose of 20 mg/kg (Table 3). Typical percent survival for no treatment control is in the range of 0-20% based on study to study variation in challenge inoculum and rate of infection. […] Mouse survival for M9 was about 90-100%, further supporting its residual antibacterial properties against the bacterial strain.

[1] = M. haemolytica 46571, bovine efficacy challenge strain

SMILES | MIC (E. coli; E. coli 25922) [µg/mL] | MIC (E. coli; E. coli W3110) [µg/mL] | MIC (M. haemolytica; M. haemolytica 12726) [µg/mL] | MIC (M. haemolytica; M. haemolytica 33396) [µg/mL] | MIC (M. haemolytica; [1]) [µg/mL] | % Survival (P. multocida 46572) [%] | Mouse survival (P. multocida 46572; M9 positive control)
CCCNC[C@]1(O)[C@H](C)O[C@@H](O[C@H]2[C@H](C)[C@@H](O[C@@H]3O[C@H](C)C[C@H](N(C)S(=O)(=O)c4ccc(C)cc4)[C@H]3O)[C@](C)(O)C[C@@H](C)CN[C@H](C)[C@@H](O)[C@](C)(O)[C@@H](CC)OC(=O)[C@@H]2C)C[C@@]1(C)OC [Example B-26, N-((2S,3R,4S,6R)-2-(((2R,3S,4R,5R,8R,10R,11R,12S,13S,14R)-2-ethyl-3,4,10-trihydroxy-13-(((2R,4R,5S,6S)-5-hydroxy-4-methoxy-4,6-dimethyl-5-((propylamino)methyl)tetrahydro-2H-pyran-2-yl)oxy)-3,5,8,10,12,14-hexamethyl-15-oxo-1-oxa-6-azacyclopentadecan-11-yl)oxy)-3-hydroxy-6-methyltetrahydro-2H-pyran-4-yl)-N,4-dimethylbenzenesulfonamide] | > 64 | > 64 | > 64 | > 64 | > 64 | 37 | –
CC[C@H]1OC(=O)[C@H](C)[C@@H](O)[C@H](C)[C@@H](O[C@@H]2O[C@H](C)C[C@H](N(C)S(=O)(=O)c3ccccc3)[C@H]2Oc2ccc(OC)cc2)[C@](C)(O)C[C@@H](C)CN[C@H](C)[C@@H](O)[C@]1(C)O [Example A-9, N-((2S,3R,4S,6R)-2-(((2R,3S,4R,5R,8R,10R,11R,12S,13S,14R)-2-ethyl-3,4,10,13-tetrahydroxy-3,5,8,10, 12, 14-hexamethyl-15-oxo-1-oxa-6-azacyclopentadecan-11-yl)oxy)-3-(4-methoxyphenoxy)-6-methyltetrahydro-2H-pyran-4-yl)-N-methylbenzenesulfonamide] | > 64 | > 64 | > 64 | > 64 | > 64 | 41 | –
CC[C@H]1OC(=O)[C@H](C)[C@@H](O[C@H]2C[C@@](C)(OC)[C@](O)(CN3CCCCC3)[C@H](C)O2)[C@H](C)[C@@H](O[C@@H]2O[C@H](C)C[C@H](N(C)S(=O)(=O)Nc3ccc(C(F)(F)F)cc3)[C@H]2O)[C@](C)(O)C[C@@H](C)CN[C@H](C)[C@@H](O)[C@]1(C)O [Example C-11, (2R,3S,4R,5R,8R,10R,11R,12S, 13S, 14R)-2-ethyl-3,4, 10-trihydroxy-13-[(2R,4R,5S,6S)-5-hydroxy-4-methoxy-4,6-dimethyl-5-(piperidin-1-ylmethyl)oxan-2-yl]oxy-11-[(2S,3R,4S,6R)-3-hydroxy-6-methyl-4-[methyl-[[4-(trifluoromethyl)phenyl]sulfamoyl]amino]oxan-2-yl]oxy-3,5,8, 10, 12, 14-hexamethyl-15-oxo-1-oxa-6-azacyclopentadecane] | > 64 | > 64 | > 64 | > 64 | > 64 | 56 | –
CC[C@H]1OC(=O)[C@H](C)[C@@H](O[C@H]2C[C@@](C)(OC)[C@](O)(CN3CCCCC3)[C@H](C)O2)[C@H](C)[C@@H](O[C@@H]2O[C@H](C)C[C@H](N(C)S(=O)(=O)c3ccc(Cl)cc3)[C@H]2O)[C@](C)(O)C[C@@H](C)CN[C@H](C)[C@@H](O)[C@]1(C)O [Example C-4, 4-chloro-N-((2S,3R,4S,6R)-2-(((2R,3S,4R,5R,8R,10R,11R,12S,13S,14R)-2-ethyl-3,4,10-trihydroxy-13-(((2R,4R,5S,6S)-5-hydroxy-4-methoxy-4,6-dimethyl-5-(piperidin-1-ylmethyl)tetrahydro-2H-pyran-2-yl)oxy)-3,5,8, 10, 12, 14-hexamethyl-15-oxo-1-oxa-6-azacyclopentadecan-11-yl)oxy)-3-hydroxy-6-methyltetrahydro-2H-pyran-4-yl)-N-methylbenzenesulfonamide] | > 128 | > 128 | > 128 | > 128 | > 128 | 76 | –
CCCNC[C@]1(O)[C@H](C)O[C@@H](O[C@H]2[C@H](C)[C@@H](O[C@@H]3O[C@H](C)C[C@H](N(C)S(=O)(=O)Nc4ccc(C(F)(F)F)cc4)[C@H]3O)[C@](C)(O)C[C@@H](C)CN[C@H](C)[C@@H](O)[C@](C)(O)[C@@H](CC)OC(=O)[C@@H]2C)C[C@@]1(C)OC [Example B-50, (2R,3S,4R,5R,8R,10R,11R,12S,13S, 14R)-2-ethyl-3,4,10-trihydroxy-13-[(2R,4R,5S,6S)-5-hydroxy-4-methoxy-4,6-dimethyl-5-(propylaminomethyl)oxan-2-yl]oxy-11-[(2S,3R,4S,6R)-3-hydroxy-6-methyl-4-[methyl-[[4-(trifluoromethyl)phenyl]sulfamoyl]amino]oxan-2-yl]oxy-3,5,8, 10, 12, 14-hexamethyl-15-oxo-1-oxa-6-azacyclopentadecane] | > 64 | > 64 | > 64 | > 64 | > 64 | 88 | –
CCCNC[C@]1(O)[C@H](C)O[C@@H](O[C@H]2[C@H](C)[C@@H](O[C@@H]3O[C@H](C)C[C@H](NC)[C@H]3O)[C@](C)(O)C[C@@H](C)CN[C@H](C)[C@@H](O)[C@](C)(O)[C@@H](CC)OC(=O)[C@@H]2C)C[C@@]1(C)OC [Example M9, (2R,3S,4R,5R,8R,10R,11R,12S,13S,14R)-2-ethyl-3,4, 10-trihydroxy-13-(((2R,4R,5S,6S)-5-hydroxy-4-methoxy-4,6-dimethyl-5-((propylamino)methyl)-tetrahydro-2H-pyran-2-yl)oxy)-11-(((2S,3R,4S,6R)-3-hydroxy-6-methyl-4-(methylamino)tetrahydro-2H-pyran-2-yl)oxy)-3,5,8,10,12,14-hexamethyl-1-oxa-6-azacyclopentadecan-15-one] | > 64 | 64 (≈ 80.8 µM) | 22 (≈ 27.8 µM) | – | – | – | 90-100%
